Test results published in US3957788A (priority 1974, dated 1976).
Read-outs that look alike come from different tables or passages of the source.

Legend:
male mice of ddN strain = experiment: animal or person; assay type: in vivo; details: Mus musculus, read-out: D'Amour-Smith method, analgesic ED50
[1] = system: male rats of Wistar strain; experiment: animal or person; assay type: in vivo; details: Rattus norvegicus, po, read-out: Haffner method, analgesic ED50
[2] = system: female mice of ddN strain; details: mouse, in vivo

Q: `Cc1c(N(C)C)c(=O)n(-c2ccccc2)n1C` [compound 5, Aminopyrine] was tested. Which ED50 (male mice of ddN strain; po) did it give?
A: ≥ 640 mg/kg

Q: What about the ED50 (male mice of ddN strain; sc) of the same compound?
A: 233 mg/kg

Q: What about the ED50 [1] of the same compound?
A: > 2560 mg/kg

Q: And the “Phenylquinone method (analgesic activity)” value [2]?
A: 53.3
